Results as given in the supplement of paper PMC10307832.

Tests used:
Assay in all cases: relative viability (nuclei count vs DMSO), 5 days (fraction); higher = more cells survive
NCI-H2228 = system: NCI-H2228
How it was run: (§1)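 For relative viability, nuclei counts in treated wells were divided by those in vehicle wells. Lung cancer cell lines had been pin-tool dosed in 1536-well plates the day after seeding and cultured for 5 days, then fixed and stained in one step (final 0.05% Triton X-100, 1% formaldehyde, 1 ug/ml Hoechst) and imaged at 4×. Doses were one drug alone or a fixed anchor-drug dose plus five library-drug doses (not always all listed) in √10 steps, and values are duplicate-plate medians.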

NCI-H1993 = system: NCI-H1993
How it was run: as §1

NCI-H2023 = system: NCI-H2023
How it was run: as §1

NCI-H838 = system: NCI-H838
How it was run: as §1

HARA = system: HARA
How it was run: as §1

COR-L23 = system: COR-L23
How it was run: as §1

NCI-H23 = system: NCI-H23
How it was run: as §1

UMC-11 = system: UMC-11
How it was run: as §1

NCI-H1944 = system: NCI-H1944
How it was run: as §1

ABC-1 = system: ABC-1
How it was run: as §1

SK-LU-1 = system: SK-LU-1
How it was run: as §1

LC-2-ad = system: LC-2-ad
How it was run: as §1

EMC-BAC-2 = system: EMC-BAC-2
How it was run: as §1

NCI-H2126 = system: NCI-H2126
How it was run: as §1

HCC-15 = system: HCC-15
How it was run: as §1

NCI-H1734 = system: NCI-H1734
How it was run: as §1

ChaGo-K-1 = system: ChaGo-K-1
How it was run: as §1

NCI-H2009 = system: NCI-H2009
How it was run: as §1

A-427 = system: A-427
How it was run: as §1

NCI-H1793 = system: NCI-H1793
How it was run: as §1

NCI-H2405 = system: NCI-H2405
How it was run: as §1

`CC1(C)CCC(c2ccc(Cl)cc2)=C(CN2CCN(c3ccc(C(=O)NS(=O)(=O)c4ccc(N[C@H](CCN5CCOCC5)CSc5ccccc5)c(S(=O)(=O)C(F)(F)F)c4)cc3)CC2)C1` [Navitoclax] + CCNC(=O)c1noc(-c2cc(C(C)C)c(O)cc2O)c1-c1ccc(CN2CCOCC2)cc1 [Luminespib] (partner 0.01 µM) showed a relative viability (NCI-H2228; first compound 0.005 µM) of 0.148, a relative viability (NCI-H2228; first compound 0.01581 µM) of 0.148 and a relative viability (NCI-H2228; first compound 0.1581 µM) of 0.146. The relative viability (NCI-H2228; first compound 0.5 µM) was 0.142, the relative viability (NCI-H1993; first compound 0.005 µM) was 0.813 and the relative viability (NCI-H1993; first compound 0.01581 µM) was 0.891. For the same compound, the relative viability (NCI-H1993; first compound 0.05 µM) was 0.824, the relative viability (NCI-H1993; first compound 0.1581 µM) was 0.913 and the relative viability (NCI-H1993; first compound 0.5 µM) was 0.803. The relative viability (NCI-H2023; first compound 0.005 µM) was 0.782, the relative viability (NCI-H2023; first compound 0.01581 µM) was 0.921 and the relative viability (NCI-H2023; first compound 0.05 µM) was 0.83. It also gave a relative viability (NCI-H2023; first compound 0.1581 µM) of 0.568, a relative viability (NCI-H2023; first compound 0.5 µM) of 0.594 and a relative viability (NCI-H838; first compound 0.005 µM) of 0.344. The relative viability (NCI-H838; first compound 0.01581 µM) was 0.438, the relative viability (NCI-H838; first compound 0.05 µM) was 0.37 and the relative viability (NCI-H838; first compound 0.1581 µM) was 0.17. It also gave a relative viability (NCI-H838; first compound 0.5 µM) of 0.239, a relative viability (HARA; first compound 0.005 µM) of 0.941 and a relative viability (HARA; first compound 0.01581 µM) of 0.678. It also gave a relative viability (HARA; first compound 0.1581 µM) of 0.562, a relative viability (HARA; first compound 0.5 µM) of 0.682 and a relative viability (COR-L23; first compound 0.005 µM) of 0.605. The relative viability (COR-L23; first compound 0.01581 µM) was 0.606, the relative viability (COR-L23; first compound 0.05 µM) was 0.738 and the relative viability (COR-L23; first compound 0.1581 µM) was 0.595. The relative viability (COR-L23; first compound 0.5 µM) was 0.666, the relative viability (NCI-H23; first compound 0.005 µM) was 0.223 and the relative viability (NCI-H23; first compound 0.01581 µM) was 0.218. It also gave a relative viability (NCI-H23; first compound 0.05 µM) of 0.224, a relative viability (NCI-H23; first compound 0.1581 µM) of 0.213 and a relative viability (NCI-H23; first compound 0.5 µM) of 0.209. For the same compound, the relative viability (UMC-11; first compound 0.005 µM) was 0.986, the relative viability (UMC-11; first compound 0.01581 µM) was 1.07 and the relative viability (UMC-11; first compound 0.05 µM) was 1.13. It also gave a relative viability (UMC-11; first compound 0.1581 µM) of 1.05, a relative viability (UMC-11; first compound 0.5 µM) of 0.829 and a relative viability (NCI-H1944; first compound 0.005 µM) of 0.731. It also gave a relative viability (NCI-H1944; first compound 0.01581 µM) of 0.717, a relative viability (NCI-H1944; first compound 0.05 µM) of 0.553 and a relative viability (NCI-H1944; first compound 0.1581 µM) of 0.733. The relative viability (NCI-H1944; first compound 0.5 µM) was 0.665, the relative viability (ABC-1; first compound 0.005 µM) was 0.596 and the relative viability (ABC-1; first compound 0.01581 µM) was 0.909. It also gave a relative viability (ABC-1; first compound 0.05 µM) of 0.677, a relative viability (ABC-1; first compound 0.5 µM) of 0.6 and a relative viability (SK-LU-1; first compound 0.005 µM) of 0.205. It also gave a relative viability (SK-LU-1; first compound 0.01581 µM) of 0.179, a relative viability (SK-LU-1; first compound 0.05 µM) of 0.199 and a relative viability (SK-LU-1; first compound 0.1581 µM) of 0.199. For the same compound, the relative viability (SK-LU-1; first compound 0.5 µM) was 0.201, the relative viability (LC-2-ad; first compound 0.005 µM) was 0.993 and the relative viability (LC-2-ad; first compound 0.01581 µM) was 1.16. The relative viability (LC-2-ad; first compound 0.05 µM) was 0.912, the relative viability (LC-2-ad; first compound 0.1581 µM) was 0.907 and the relative viability (LC-2-ad; first compound 0.5 µM) was 0.856. The relative viability (EMC-BAC-2; first compound 0.005 µM) was 1.09, the relative viability (EMC-BAC-2; first compound 0.01581 µM) was 1.24 and the relative viability (EMC-BAC-2; first compound 0.05 µM) was 1.08. It also gave a relative viability (EMC-BAC-2; first compound 0.1581 µM) of 1.13, a relative viability (EMC-BAC-2; first compound 0.5 µM) of 1.12 and a relative viability (NCI-H2126; first compound 0.005 µM) of 0.906. The relative viability (NCI-H2126; first compound 0.01581 µM) was 0.952, the relative viability (NCI-H2126; first compound 0.05 µM) was 0.923 and the relative viability (NCI-H2126; first compound 0.1581 µM) was 0.779. For the same compound, the relative viability (NCI-H2126; first compound 0.5 µM) was 0.844, the relative viability (HCC-15; first compound 0.005 µM) was 0.299 and the relative viability (HCC-15; first compound 0.01581 µM) was 0.284. The relative viability (HCC-15; first compound 0.05 µM) was 0.546, the relative viability (HCC-15; first compound 0.1581 µM) was 0.352 and the relative viability (HCC-15; first compound 0.5 µM) was 0.256. It also gave a relative viability (NCI-H1734; first compound 0.005 µM) of 0.174, a relative viability (NCI-H1734; first compound 0.01581 µM) of 0.191 and a relative viability (NCI-H1734; first compound 0.1581 µM) of 0.182. It also gave a relative viability (NCI-H1734; first compound 0.5 µM) of 0.16, a relative viability (ChaGo-K-1; first compound 0.005 µM) of 0.708 and a relative viability (ChaGo-K-1; first compound 0.01581 µM) of 0.593. For the same compound, the relative viability (ChaGo-K-1; first compound 0.05 µM) was 0.306, the relative viability (ChaGo-K-1; first compound 0.1581 µM) was 0.578 and the relative viability (ChaGo-K-1; first compound 0.5 µM) was 0.636. The relative viability (NCI-H2009; first compound 0.005 µM) was 1.04, the relative viability (NCI-H2009; first compound 0.01581 µM) was 1.1 and the relative viability (NCI-H2009; first compound 0.05 µM) was 1.02. For the same compound, the relative viability (NCI-H2009; first compound 0.1581 µM) was 1.07, the relative viability (NCI-H2009; first compound 0.5 µM) was 1.04 and the relative viability (A-427; first compound 0.005 µM) was 0.902. It also gave a relative viability (A-427; first compound 0.01581 µM) of 0.833, a relative viability (A-427; first compound 0.05 µM) of 0.804 and a relative viability (A-427; first compound 0.1581 µM) of 0.908. For the same compound, the relative viability (A-427; first compound 0.5 µM) was 0.948, the relative viability (NCI-H1793; first compound 0.005 µM) was 0.262 and the relative viability (NCI-H1793; first compound 0.01581 µM) was 0.177. For the same compound, the relative viability (NCI-H1793; first compound 0.1581 µM) was 0.216, the relative viability (NCI-H1793; first compound 0.5 µM) was 0.17 and the relative viability (NCI-H2405; first compound 0.005 µM) was 0.89. For the same compound, the relative viability (NCI-H2405; first compound 0.01581 µM) was 0.727, the relative viability (NCI-H2405; first compound 0.05 µM) was 0.755 and the relative viability (NCI-H2405; first compound 0.1581 µM) was 0.765. The relative viability (NCI-H2405; first compound 0.5 µM) was 0.702.
